Experimental findings from paper PMC12281424, “A Rac-specific competitive inhibitor of guanine nucleotide binding reduces metastasis in triple-negative breast cancer” (Cell Reports Medicine, 2025) are described below.

One experiment concerns the target AMPKα1(h) (Homo sapiens, UniProt Q13131). The experiment is described as follows: Kinase Profiler. Format: biochemical.
The next experiment concerns the target SIK2(h) (Homo sapiens, UniProt Q9H0K1). Description: Kinase Profiler. The class given is biochemical.
A further experiment addresses SGK3(h) (Homo sapiens, UniProt Q96BR1). Description: Kinase Profiler. Format: biochemical.
For another experiment, the target named is STK33(h) (Homo sapiens, UniProt Q9BYT3). The experiment is described as follows: Kinase Profiler. Format: biochemical.
STK33(h), sequence (Q9BYT3 whole entry): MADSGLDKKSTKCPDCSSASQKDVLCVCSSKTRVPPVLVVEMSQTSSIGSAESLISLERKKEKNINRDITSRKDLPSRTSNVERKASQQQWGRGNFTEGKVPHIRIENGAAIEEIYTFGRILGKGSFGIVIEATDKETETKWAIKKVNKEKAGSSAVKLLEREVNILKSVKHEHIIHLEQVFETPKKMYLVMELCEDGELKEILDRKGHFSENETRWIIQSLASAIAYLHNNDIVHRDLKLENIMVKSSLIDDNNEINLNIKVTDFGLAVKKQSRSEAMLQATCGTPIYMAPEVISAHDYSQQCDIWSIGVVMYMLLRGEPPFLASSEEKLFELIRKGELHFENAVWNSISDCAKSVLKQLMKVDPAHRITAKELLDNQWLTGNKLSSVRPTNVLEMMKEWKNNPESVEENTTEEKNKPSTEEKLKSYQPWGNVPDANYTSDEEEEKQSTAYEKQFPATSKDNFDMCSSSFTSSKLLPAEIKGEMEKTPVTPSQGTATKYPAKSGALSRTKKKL
In another experiment the target is Itk(h) (Homo sapiens, UniProt Q08881). The experiment is described as follows: Kinase Profiler. The class given is biochemical.
Itk(h), sequence (Q08881 whole entry): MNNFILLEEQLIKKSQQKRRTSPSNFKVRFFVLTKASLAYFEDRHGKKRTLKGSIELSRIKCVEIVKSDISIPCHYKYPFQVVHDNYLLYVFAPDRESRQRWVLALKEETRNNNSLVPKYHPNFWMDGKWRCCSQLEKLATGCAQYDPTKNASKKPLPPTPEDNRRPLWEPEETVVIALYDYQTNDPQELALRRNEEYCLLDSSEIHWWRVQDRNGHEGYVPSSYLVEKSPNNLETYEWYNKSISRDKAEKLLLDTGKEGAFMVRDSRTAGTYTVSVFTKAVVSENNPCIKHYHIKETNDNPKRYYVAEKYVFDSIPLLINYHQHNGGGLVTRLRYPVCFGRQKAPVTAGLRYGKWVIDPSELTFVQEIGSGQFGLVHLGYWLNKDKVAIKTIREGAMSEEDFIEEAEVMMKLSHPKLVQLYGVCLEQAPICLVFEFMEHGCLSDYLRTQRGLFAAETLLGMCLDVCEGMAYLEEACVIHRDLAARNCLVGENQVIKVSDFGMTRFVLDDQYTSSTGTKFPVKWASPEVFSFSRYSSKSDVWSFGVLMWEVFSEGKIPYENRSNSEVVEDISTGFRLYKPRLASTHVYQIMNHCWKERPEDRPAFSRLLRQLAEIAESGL
The target of a further experiment is GRK6(h) (Homo sapiens, UniProt P43250). The experiment is described as follows: Kinase Profiler. The class given is biochemical.
GRK6(h), sequence (P43250 whole entry): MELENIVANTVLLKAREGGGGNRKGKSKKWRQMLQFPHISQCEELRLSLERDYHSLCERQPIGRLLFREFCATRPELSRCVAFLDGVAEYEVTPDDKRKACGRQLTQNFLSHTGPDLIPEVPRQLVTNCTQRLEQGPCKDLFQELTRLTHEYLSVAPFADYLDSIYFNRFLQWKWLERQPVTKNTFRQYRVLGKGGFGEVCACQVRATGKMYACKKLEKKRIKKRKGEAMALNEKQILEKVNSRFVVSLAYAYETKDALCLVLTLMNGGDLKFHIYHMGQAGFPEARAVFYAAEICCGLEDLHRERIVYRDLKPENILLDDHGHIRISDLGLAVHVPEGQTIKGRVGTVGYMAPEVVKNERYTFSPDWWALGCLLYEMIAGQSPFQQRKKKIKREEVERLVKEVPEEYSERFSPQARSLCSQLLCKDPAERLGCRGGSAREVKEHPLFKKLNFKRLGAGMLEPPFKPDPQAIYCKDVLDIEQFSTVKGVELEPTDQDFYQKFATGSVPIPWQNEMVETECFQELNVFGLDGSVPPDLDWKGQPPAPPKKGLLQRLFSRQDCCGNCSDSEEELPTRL
For a further experiment, the target named is TRB2(h) (Homo sapiens, UniProt Q92519). Description: Kinase Profiler. The class given is biochemical.
Experiment [1] relates to GABAA, Flunitrazepam, Central. The experiment is described as follows: Safety screen. Format: binding, rat.
Protocol: Blood cell counts, kinase profiler, safety screen, bacterial cytotoxicity, Ames, micronucleus assays were performed by the company Eurofins (France).
The next experiment deals with OSR1(h) (Homo sapiens, UniProt O95747). Description: Kinase Profiler. Format: biochemical.
The target of a further experiment is Abl(h) (Homo sapiens, UniProt P00519). The experiment is described as follows: Kinase Profiler. Format: biochemical.
Abl(h), sequence (P00519 whole entry): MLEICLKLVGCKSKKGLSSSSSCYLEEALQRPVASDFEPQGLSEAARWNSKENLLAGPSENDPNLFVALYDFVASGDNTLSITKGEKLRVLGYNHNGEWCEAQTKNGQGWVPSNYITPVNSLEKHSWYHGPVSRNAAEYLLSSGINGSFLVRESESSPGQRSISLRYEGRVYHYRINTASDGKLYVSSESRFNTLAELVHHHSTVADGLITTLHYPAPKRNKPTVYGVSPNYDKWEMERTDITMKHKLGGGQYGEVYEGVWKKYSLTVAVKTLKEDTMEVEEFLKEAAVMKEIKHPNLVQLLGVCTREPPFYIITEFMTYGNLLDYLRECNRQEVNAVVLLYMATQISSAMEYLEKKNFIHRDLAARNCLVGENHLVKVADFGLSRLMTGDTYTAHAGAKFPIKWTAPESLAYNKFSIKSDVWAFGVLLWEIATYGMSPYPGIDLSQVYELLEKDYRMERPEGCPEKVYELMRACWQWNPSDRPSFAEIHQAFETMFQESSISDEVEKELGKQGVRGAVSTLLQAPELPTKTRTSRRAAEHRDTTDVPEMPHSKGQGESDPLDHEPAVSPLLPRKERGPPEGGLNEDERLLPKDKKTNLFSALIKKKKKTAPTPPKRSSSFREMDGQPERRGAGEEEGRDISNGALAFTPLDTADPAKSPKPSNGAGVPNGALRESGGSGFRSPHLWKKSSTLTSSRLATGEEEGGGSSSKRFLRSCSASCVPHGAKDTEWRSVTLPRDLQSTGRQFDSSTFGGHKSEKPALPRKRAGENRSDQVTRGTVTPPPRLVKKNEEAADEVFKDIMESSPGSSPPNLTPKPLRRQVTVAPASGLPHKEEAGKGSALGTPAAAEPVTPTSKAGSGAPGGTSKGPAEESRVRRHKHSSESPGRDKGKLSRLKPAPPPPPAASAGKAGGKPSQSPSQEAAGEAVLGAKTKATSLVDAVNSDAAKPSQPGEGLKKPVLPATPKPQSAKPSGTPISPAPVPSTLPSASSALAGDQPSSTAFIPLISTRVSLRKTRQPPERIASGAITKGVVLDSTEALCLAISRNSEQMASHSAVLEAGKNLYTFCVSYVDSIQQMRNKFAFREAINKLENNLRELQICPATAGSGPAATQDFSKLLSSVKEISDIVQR
In a further experiment the target is PKCη(h) (Homo sapiens, UniProt P24723). The experiment is described as follows: Kinase Profiler. Format: biochemical.
The next experiment concerns the target PAK4(h) (Homo sapiens, UniProt O96013). Description: Kinase Profiler. The class given is biochemical.
A further experiment deals with CaMKIIβ(h) (Homo sapiens, UniProt Q13554). Description: Kinase Profiler. The class given is biochemical.
A further experiment deals with Pim-1(h) (Homo sapiens, UniProt P11309). Description: Kinase Profiler. The class given is biochemical.
Pim-1(h), sequence (P11309 whole entry): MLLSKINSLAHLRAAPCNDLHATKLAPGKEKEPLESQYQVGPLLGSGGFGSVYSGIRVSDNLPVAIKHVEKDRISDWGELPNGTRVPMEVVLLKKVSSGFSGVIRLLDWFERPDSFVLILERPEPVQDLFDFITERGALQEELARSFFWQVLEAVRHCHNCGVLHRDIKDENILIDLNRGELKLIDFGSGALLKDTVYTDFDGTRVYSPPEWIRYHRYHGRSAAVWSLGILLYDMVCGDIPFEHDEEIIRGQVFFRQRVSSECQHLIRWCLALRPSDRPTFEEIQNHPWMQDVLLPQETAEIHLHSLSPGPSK
The next experiment concerns the target T1, RAC1 G30S (Homo sapiens, UniProt P63000, G30S).
T1 construct: Full-length RAC1G30S was obtained by directed mutagenesis on the pET-3a-RAC1HisCter plasmid; 6xHis (C); made in house
The experiment is described as follows: GEF-stimulated nucleotide exchange. The class given is biochemical. More on the design: dose or concentration left out as unconfirmed. An excerpt:
Figure 4 A41 selectively impairs RAC protein activation (A) Representative surface plasmon resonance (SPR) sensograms of binding of immobilized RHOA or CDC42 with indicated increasing concentrations of A41 (N > 3). (B) Effect of A41 on GEF-stimulated RAC2, RHOG, RHOA, and CDC42 nucleotide exchange. […] Kobs is expressed as mean ± SEM. ∗p < 0.001 vs. control. (C) Effect of A41 on RAC1 G30S activation. […] Data are expressed as mean ± SEM. (D) Immunoblot analysis and associated quantification of RAC-GTP level and total RAC expression in NIH-3T3 fibroblasts expressing RAC wild-type (RAC1 WT) or RAC1 oncomutants (RAC1 P29S and RAC1b) in the absence (Ctrl) and presence of A41 (10 μM). RAC activation was measured as the ratio of RAC-GTP to total RAC and expressed relative to Ctrl condition. Data are presented as mean ± SEM. ∗∗∗p < 0.001 vs. controls.
Full-length RAC1 carrying a 6xHis tag in C-terminus was purified as previously described.[64] […] Specific exchange activity toward RHOA determined by fluorescence kinetics is 0.04 s^−1M^−1.
Nucleotide exchange kinetics were measured by recording the increase in fluorescence following the association of mant-GTP on GDP-bound RHO protein or the decay in fluorescence following the dissociation of mant-GDP pre-loaded onto the RHO protein (λEx = 360 nm, λEm = 440 nm) as previously described.[39] […]

The next experiment concerns the target MEK2(h) (Homo sapiens, UniProt P36507). The experiment is described as follows: Kinase Profiler. The class given is biochemical.
For the next experiment, the target named is FGFR2(N549H)(h) (Homo sapiens, UniProt P21802, N549H). Description: Kinase Profiler. Format: biochemical.

MEK2(h), sequence (P36507 whole entry): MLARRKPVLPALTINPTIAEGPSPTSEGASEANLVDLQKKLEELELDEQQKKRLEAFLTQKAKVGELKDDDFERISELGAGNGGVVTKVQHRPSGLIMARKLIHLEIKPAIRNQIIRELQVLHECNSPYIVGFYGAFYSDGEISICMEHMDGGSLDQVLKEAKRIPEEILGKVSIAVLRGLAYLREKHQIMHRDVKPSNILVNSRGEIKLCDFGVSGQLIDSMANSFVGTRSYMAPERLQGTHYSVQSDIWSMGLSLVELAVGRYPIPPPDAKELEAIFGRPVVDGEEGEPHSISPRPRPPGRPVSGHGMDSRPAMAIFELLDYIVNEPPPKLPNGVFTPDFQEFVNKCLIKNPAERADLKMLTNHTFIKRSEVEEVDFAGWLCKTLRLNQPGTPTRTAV
AMPKα1(h), sequence (Q13131 whole entry): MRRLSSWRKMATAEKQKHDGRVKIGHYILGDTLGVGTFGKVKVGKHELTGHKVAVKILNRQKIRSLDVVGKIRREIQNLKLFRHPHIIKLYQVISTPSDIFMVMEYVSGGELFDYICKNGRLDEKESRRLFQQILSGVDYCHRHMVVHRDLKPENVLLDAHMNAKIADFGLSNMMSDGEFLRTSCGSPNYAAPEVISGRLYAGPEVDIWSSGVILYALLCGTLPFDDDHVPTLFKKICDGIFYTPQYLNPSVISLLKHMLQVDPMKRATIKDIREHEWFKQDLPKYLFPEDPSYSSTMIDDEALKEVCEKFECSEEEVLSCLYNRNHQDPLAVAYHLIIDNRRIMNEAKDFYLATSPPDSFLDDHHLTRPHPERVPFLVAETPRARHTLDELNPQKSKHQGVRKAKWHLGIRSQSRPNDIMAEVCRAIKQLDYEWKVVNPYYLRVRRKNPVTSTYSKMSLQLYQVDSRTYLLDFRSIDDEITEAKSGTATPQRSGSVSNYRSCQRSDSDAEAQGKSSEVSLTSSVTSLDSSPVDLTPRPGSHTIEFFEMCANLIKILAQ
AMPKα1(h), sequence (Q9Y478 whole entry partner): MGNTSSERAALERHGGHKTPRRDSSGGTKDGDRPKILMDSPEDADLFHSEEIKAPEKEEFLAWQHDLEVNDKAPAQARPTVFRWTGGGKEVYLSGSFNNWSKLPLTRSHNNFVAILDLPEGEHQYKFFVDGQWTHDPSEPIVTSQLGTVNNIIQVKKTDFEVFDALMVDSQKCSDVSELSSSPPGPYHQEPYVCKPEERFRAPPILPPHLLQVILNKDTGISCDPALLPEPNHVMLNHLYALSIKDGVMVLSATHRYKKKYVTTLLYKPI
AMPKα1(h), sequence (P54619 whole entry partner): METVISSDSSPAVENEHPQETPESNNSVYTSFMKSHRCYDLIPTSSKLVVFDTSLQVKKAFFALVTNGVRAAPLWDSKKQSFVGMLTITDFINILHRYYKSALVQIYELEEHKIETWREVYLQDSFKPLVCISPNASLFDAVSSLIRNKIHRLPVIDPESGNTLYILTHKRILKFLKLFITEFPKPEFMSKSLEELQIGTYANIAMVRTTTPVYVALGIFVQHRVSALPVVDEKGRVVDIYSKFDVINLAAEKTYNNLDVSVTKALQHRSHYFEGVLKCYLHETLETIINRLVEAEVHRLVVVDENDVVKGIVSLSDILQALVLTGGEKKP
Protocol for AMPKα1(h): (§1) Blood cell counts, kinase profiler, safety screen, bacterial cytotoxicity, Ames, micronucleus assays were performed by the company Eurofins (France). The kinase profiler was performed by the company Eurofins (Discovery, Panlab and Cerep).
Protocol for Abl(h): (§2) The kinase profiler was performed by the company Eurofins (Discovery, Panlab and Cerep).
Protocol for CaMKIIβ(h): as §2
Protocol for FGFR2(N549H)(h): as §2
Protocol for GRK6(h): as §1
Protocol for Itk(h): as §2
Protocol for MEK2(h): as §2
Protocol for OSR1(h): as §1
Protocol for PAK4(h): as §1
Protocol for PKCη(h): as §2
Protocol for Pim-1(h): as §1
Protocol for SGK3(h): as §2
Protocol for SIK2(h): as §2
Protocol for STK33(h): as §2
Protocol for TRB2(h): as §2

Regarding `COc1ccc(OC)c(NS(=O)(=O)c2ccc(NC(=O)CCSc3ccc(C)cc3)cc2)c1` [Compound A41], the “Activity(%)” value is on record as 102% on AMPKα1(h); 90% on SIK2(h); 106% on SGK3(h); 98% at STK33(h); 78% on Itk(h); 100% at GRK6(h). Besides, the “Activity(%)” value on TRB2(h) is reported as 104%; at OSR1(h), 103%; at Abl(h), 90%; on PKCη(h) it was 118%; at PAK4(h), 106%; on CaMKIIβ(h) it was 112%. Also, the entries for the “Activity(%)” value at Pim-1(h), at MEK2(h) and on FGFR2(N549H)(h) were 95%, 109% and 105%, respectively. For the same molecule, the “% inh.” value in experiment [1] amounted to 15%. Further, the “TRIO-induced nucleotide exchange on RAC1 G30S” value on RAC1 G30S is “not able to inhibit”.
